Test results from patent publication US10308608B2, “Histone deacetylase inhibitors” (BIOMARIN PHARMACEUTICAL INC., priority 2015, dated 2019).
Where a name gives a salt, the structure may show the parent alone. Read-outs that look alike come from different tables or passages of the source.

System: Frataxin (FXN) mRNA
Assay: Effect of HDAC inhibitors on frataxin (FXN) mRNA expression, qRT-PCR in compound-treated iPSC derived neuronal cells
Type: cell-based
Conditions: iPSC, 24 h
Summary of the method: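 iPSC-derived neuronal cells, differentiated 16 days without EGF/bFGF, treated with compound 24 h. FXN mRNA measured by one-step SYBR Green qRT-PCR; fold induction reported at 0.625 μM compound, binned A<1, 1<B<2, 2<C<3, 3<D<5, E>5.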

[1] = read-out: FXN mRNA fold induction, compound concentration of 0.625 μM, 24 h incubation
[2] = compound concentration of 0.625 μM, 24 h incubation, read-out: FXN mRNA fold induction

| SMILES | fold induction at 0.625 µM [1] | fold induction at 0.625 µM [2] |
| --- | --- | --- |
| CC(C)CN1C2CCC1CC(Nc1ccc(C(=O)Nc3ccccc3N)cc1)C2 (centres unmarked) [Compound 117, N-(2-aminophenyl)-4-((8-isobutyl-8-azabicyclo[3.2.1]octan-3-yl)amino)benzamide] | 2 to 3 | – |
| CC(C)(O)CN1C2CCC1CC(Nc1ccc(C(=O)Nc3ccccc3N)cc1)C2 (centres unmarked) [Compound 118, N-(2-aminophenyl)-4-((8-(2-hydroxy-2-methylpropyl)-8-azabicyclo[3.2.1]octan-3-yl)amino)benzamide] | 2 to 3 | – |
| CC(C)(C)CN1C2CCC1CC(Nc1ccc(C(=O)Nc3ccccc3N)cc1)C2 (centres unmarked) [Compound 119, N-(2-aminophenyl)-4-((8-neopentyl-8-azabicyclo[3.2.1]octan-3-yl)amino)benzamide] | 2 to 3 | – |
| Nc1ccccc1NC(=O)c1ccc(NC2CC3CCC(C2)N3CC2CC2)cc1 (centres unmarked) [Compound 120, N-(2-aminophenyl)-4-((8-(cyclopropylmethyl)-8-azabicyclo[3.2.1]octan-3-yl)amino)benzamide trihydrochloride] | 1 to 2 | – |
| Nc1ccccc1NC(=O)c1ccc(NC2CC3CCC(C2)N3CC2CCCCC2)cc1 (centres unmarked) [Compound 122, N-(2-aminophenyl)-4-((8-(cyclohexylmethyl)-8-azabicyclo[3.2.1]octan-3-yl)amino)benzamide] | 2 to 3 | – |
| Nc1ccccc1NC(=O)c1ccc(OC2CCCN(C3CC3)CC2)cc1 (centres unmarked) [Compound 123, N-(2-aminophenyl)-4-((1-cyclopropylazepan-4-yl)oxy)benzamide benzamide dihydrochloride] | – | 1 to 2 |
| Nc1ccccc1NC(=O)c1ccc(OC2CCCN(C3COC3)CC2)cc1 (centres unmarked) [Compound 124, N-(2-aminophenyl)-4-((1-(oxetan-3-yl)azepan-4-yl)oxy)benzamide] | – | 1 to 2 |
| Nc1ccccc1NC(=O)c1ccc(OC2CN(C3CC3)C2)cc1 [Compound 125, N-(2-aminophenyl)-4-((1-cyclopropylazetidin-3-yl)oxy)benzamide] | – | 1 to 2 |
| Nc1ccccc1NC(=O)c1ccc(OC2CN(C3COC3)C2)cc1 [Compound 126, N-(2-aminophenyl)-4-((1-(oxetan-3-yl)azetidin-3-yl)oxy)benzamide] | – | 1 to 2 |
| Nc1ccccc1NC(=O)c1ccc(O[C@H]2CCN(C3CC3)C2)cc1 [Compound 127, (S)-N-(2-aminophenyl)-4-((1-cyclopropylpyrrolidin-3-yl)oxy)benzamide dihydrochloride] | – | 1 to 2 |
| Nc1ccccc1NC(=O)c1ccc(O[C@H]2CCN(C3COC3)C2)cc1 [Compound 128, (S)-N-(2-aminophenyl)-4-((1-(oxetan-3-yl)pyrrolidin-3-yl)oxy)benzamide] | – | 1 to 2 |
| Nc1ccccc1NC(=O)c1ccc(O[C@@H]2CCN(C3CC3)C2)cc1 [Compound 129, (R)-N-(2-aminophenyl)-4-((1-cyclopropylpyrrolidin-3-yl)oxy)benzamide] | – | 1 to 2 |
| Nc1ccccc1NC(=O)c1ccc(O[C@@H]2CCN(C3COC3)C2)cc1 [Compound 130, (R)-N-(2-aminophenyl)-4-((1-(oxetan-3-yl)pyrrolidin-3-yl)oxy)benzamide] | – | 1 to 2 |
| Nc1ccccc1NC(=O)c1ccc(OC2CCN(C3CC3)CC2)cc1 [Compound 131, N-(2-aminophenyl)-4-((1-cyclopropylpiperidin-4-yl)oxy)benzamide dihydrochloride] | – | 1 to 2 |
| Nc1ccccc1NC(=O)c1ccc(OC2CCN(C3COC3)CC2)cc1 [Compound 132, N-(2-aminophenyl)-4-((1-(oxetan-3-yl)piperidin-4-yl)oxy)benzamide] | – | 1 to 2 |
| Nc1ccccc1NC(=O)c1ccc(OC2CCN(CC34CC5CC(CC(C5)C3)C4)CC2)cc1 [Compound 133, 4-((1-(((3r,5r,7r)-adamantan-1-yl)methyl)pipendin-4-yl)oxy)-N-(2-aminophenyl)benzamide dihydrochloride] | – | 2 to 3 |
| Nc1ccccc1NC(=O)c1ccc(NC2CN(C3CC3)C2)cc1 [Compound 134, N-(2-aminophenyl)-4-((1-cyclopropylazetidin-3-yl)amino)benzamide trihydrochloride] | – | 1 to 2 |
| Nc1ccccc1NC(=O)c1ccc(NC2CN(C3COC3)C2)cc1 [Compound 135, N-(2-aminophenyl)-4-((1-(oxetan-3-yl)azetidin-3-yl)amino)benzamide] | – | 1 to 2 |
| Nc1ccccc1NC(=O)c1ccc(N[C@H]2CCN(C3CC3)C2)cc1 [Compound 136, (S)-N-(2-aminophenyl)-4-((1-cyclopropylpyrrolidin-3-yl)amino)benzamide] | – | 1 to 2 |
| Nc1ccccc1NC(=O)c1ccc(N[C@H]2CCN(C3COC3)C2)cc1 [Compound 137, (S)-N-(2-aminophenyl)-4-((1-(oxetan-3-yl)pyrrolidin-3-yl)amino)benzamide] | – | 1 to 2 |
| Nc1ccccc1NC(=O)c1ccc(N[C@@H]2CCN(C3CC3)C2)cc1 [Compound 138, (R)-N-(2-aminophenyl)-4-((1-cyclopropylpyrrolidin-3-yl)amino)benzamide trihydrochloride] | – | 2 to 3 |
| Nc1ccccc1NC(=O)c1ccc(N[C@@H]2CCN(C3COC3)C2)cc1 [Compound 139, (R)-N-(2-aminophenyl)-4-((1-(oxetan-3-yl)pyrrolidin-3-yl)amino)benzamide tris(2,2,2-trifluoroacetate)] | – | 1 to 2 |
| Nc1ccccc1NC(=O)c1ccc(NC2CCN(C3CC3)CC2)cc1 [Compound 140, N-(2-aminophenyl)-4-((1-cyclopropylpiperidin-4-yl)amino)benzamide trihydrochloride trihydrochloride] | – | 2 to 3 |
| Nc1ccccc1NC(=O)c1ccc(NC2CCN(C3COC3)CC2)cc1 [Compound 141, N-(2-aminophenyl)-4-((1-(oxetan-3-yl)piperidin-4-yl)amino)benzamide] | – | 1 to 2 |
| Nc1ccccc1NC(=O)c1ccc(NC2CCN(CC34CC5CC(CC(C5)C3)C4)CC2)cc1 [Compound 142, 4-((1-(((3r,5r,7r)-adamantan-1-yl)methyl)piperidin-4-yl)amino)-N-(2-aminophenyl)benzamide trihydrochloride] | – | 2 to 3 |
| CC(=O)N1CC(Nc2ccc(C(=O)Nc3ccccc3N)cc2)C1 [Compound 170, 4-((1-acetylazetidin-3-yl)amino)-N-(2-aminophenyl)benzamide] | – | 1 to 2 |
| CC(C)(O)CN1CCC(Oc2ccc(C(=O)Nc3ccccc3N)cc2)CC1(C)C (centres unmarked) [Compound 363, N-(2-aminophenyl)-4-((1-(2-hydroxy-2-methylpropyl)-2,2-dimethylpiperidin-4-yl)oxy)benzamide] | – | 2 to 3 |
| CC(C)(O)CN1CCC(Nc2ccc(C(=O)Nc3ccccc3N)cc2)CC1(C)C (centres unmarked) [Compound 369, N-(2-aminophenyl)-4-((1-(2-hydroxy-2-methylpropyl)-2,2-dimethylpiperidin-4-yl)amino)benzamide] | – | 1 to 2 |
| CC(C)(O)CN1CCC(Sc2ccc(C(=O)Nc3ccccc3N)cc2)CC1 [Compound 375, N-(2-aminophenyl)-4-((1-(2-hydroxy-2-methylpropyl)piperidin-4-yl)thio)benzamide] | – | 1 to 2 |
